From US20230293488A1, “COMPOSITIONS AND METHODS OF USE OF ANTIBACTERIAL DRUG COMBINATIONS” (priority 2015, published 2023) come the findings set out here.

Experiment [1] concerns MRSA N315. The experiment in a line: In vitro MICs and FICI for MRSA N315 after passage in vivo. The experiment is classed as cell-based, Staphylococcus aureus. The source says:
We tested MRSA N315 cultures from blood drawn from mice treated with meropenem, piperacillin, or vehicle for their in vitro MICs against ME/PI/TZ and its constituent single drugs to determine whether adaptation occurred during passage in vivo. All four tested isolates of MRSA N315 had identical MICs for the triple ME/PI/TZ and all constituent drugs, and thus identical synergy (Table 6B).
(§1) Microbiological Studies: MRSA N315 was a gift from Dr. Steven Gill, University of Rochester, Rochester, NY, USA. S. aureus ATCC 29213 was acquired from the American Type Culture Collection. De-identified clinical MRSA isolates were selected at random from the clinical isolate strain bank at Barnes-Jewish Hospital, St. Louis, MO, USA. Minimal inhibitory concentration (MIC) assays for inhibition of growth were performed following the recommendations of the Clinical and Laboratory Standards Institute (CLSI)^43. Briefly, 23 antibacterial compounds (Supplemental Table 1) were selected based on coverage of all major drug classes, including three compounds not classified as antibiotics for human use, but with known antibacterial properties. Compounds were dissolved in dimethyl sulfoxide (DMSO) to a stock concentration of 50 mg/ml. Exceptions: Sulfometuron at 20 mg/ml in DMSO; Tobramycin, D-cycloserine, and colistin at 50 mg/ml in H2O and filtered at 2 μm. The 23 compounds were formulated into all 253 possible unique pairwise combinations at fixed ratios and at 100× concentrations in solvent. To increase the range of concentrations assayed for possible synergistic or antagonistic drug interactions (>2,000-fold), the drug stocks were arrayed into threefold dilution series down eight rows in 96-well Costar master drug plates, using a BioMek FX robotic liquid handler (Beckman Coulter, Inc.). Drugs were then mixed 1:100 into 96-well plates containing 200 μl/well of cation-adjusted Mueller-Hinton broth (CAMHB). All drug susceptibility assay wells were inoculated with ˜1 μl of mid-log phase bacterial culture at 0.5 McFarland standard (˜2×10^8 CFU/ml) and grown at 37° C. for 24 h. Endpoint growth at 37° C. after 24 h was determined by optical density at 600 nm ≥0.1 using a Synergy H1 reader (BioTek, Inc.).
(§2) Bacterial isolation from blood. Blood samples were checked for bacterial growth by plating and liquid culture. Whole blood (100 μl, three samples per group) was spread onto Brain-Heart Infusion (BHI) agar plates and incubated at 36° C. overnight. Colonies were counted and three colonies were selected, grown overnight in liquid BHI culture at 36° C., then mixed 1:1 with 30% LB-glycerol and stored at −80° C. The remaining three blood samples of each group (50 μl) was added to 5 ml BHI broth and incubated overnight at 36° C. When growth was noted, cultures were mixed 1:1 with 30% LB-glycerol and stored at −80° C.

Experiment [2] deals with MRSA N315. The experiment in a line: MIC assay and FICI synergy determination (checkerboard). The note with it: Staphylococcus aureus, MRSA; single compounds; read-out: MIC in MRSA N315. The experiment is classed as cell-based, Staphylococcus aureus. The method, then: as §1
Synergy of antibiotic combinations was determined using the fractional inhibitory concentration index (FICI) method ^57,58. By this method, the MIC of the antibiotic compound in combination is divided by the MIC of the compound alone, yielding the fractional contribution of each drug component in the combination. Quotients for all in a combination are summed and drug interactions scored using the formula: FICI=(MIC Acomb A B C)/MICagent A+(MIC Bcomb A B C)/MICagent B+(MIC Ccomb A B C)/MICagentC Select pairwise combinations against MRSA were then combined with each of the 21 remaining single drugs to make triple combinations, formulated and tested in identical fashion to the double combinations. Synergy of combinations was confirmed via triplicate measurements of drug conditions at the MIC. Based on its high synergy against MRSA N315 in the sparse screening, ME/PI/TZ and its constituents were selected for further characterization. Final susceptibility testing of ME/PI/TZ and its components was performed using twofold dilution from 128 to 2 μg/ml for each component

The subject of another experiment is mecA. The experiment in a line: Expression profiling with qRT-PCR. Particulars: wild-type MRSA N315, relative to gyrB. The experiment is classed as cell-based, Staphylococcus aureus. A general note: Quantitative PCR measures a nucleic acid by following its amplification.
Experiment [3] has as its system MRSA N315. The experiment in a line: Neutropenic mouse peritonitis model of MRSA infection. The experiment is classed as in vivo, mice.
From the text: In vivo mouse model of MRSA infection: Animals. Outbred ICR female mice (6-8 weeks old, 17-25 g body weight; Harlan Laboratories, Inc., Indianapolis, IN, USA) were used. Mice were given Teklad 2019 Extruded Rodent Diet (Harlan Laboratories, Inc., Indianapolis, IN, USA) and water ad libitum. Mice were maintained in polycarbonate shoebox cages containing corncob (The Andersons, Inc., Maumee, OH, USA) and Alpha-dri (Shepherd Specialty Papers, Inc., Richland, MI, USA) bedding under 12-h light/12-h dark cycle at 22±1° C. All procedures involving animals were approved by the University of Notre Dame Institutional Animal Care and Use Committee.
Neutropenic mouse peritonitis model of MRSA infection. Doses of cyclophosphamide (100 μl of 50 mg/ml in 0.9% saline corresponding to 200 mg/kg; Alfa Aesar, Ward Hill, MA, USA) were given intraperitoneally (IP) at 4 days and 1 day prior to infection. The S. strain N315 was streaked onto Brain-Heart Infusion (BHI; Becton Dickson and Company, Sparks, MD, USA) agar and grown overnight at 36° C. The MRSA N315 bacterial inoculum was adjusted to approximately 1×10^8 CFU/ml (corresponding to OD540=0.5), then diluted to give 2×10^7CFU/ml. A 10% porcine mucin (Sigma-Aldrich, St. Louis, MO, USA) suspension was prepared and adjusted to pH 7. Immediately prior to infection, the bacterial inocula were diluted 1:1 with 10% mucin to a final concentration of 1×10^7CFU/ml in 5% mucin. The mice were then infected IP with 0.5 ml of this inoculum. In vivo dosing of compounds in mice was compared with mean or range peak human plasma concentrations of studied β-lactams^44,46,47,62,63.
Antibiotic preparation. Meropenem was obtained from AK Scientific, Inc. (Union City, CA, USA), piperacillin and tazobactam were obtained from Sigma-Aldrich Co. (St. Louis, MO, USA). Linezolid (CAS 165800-03-3) was obtained from AmplaChem (Carmel, IN, USA). Antibiotics were dissolved at a concentration of 16.67 mg/ml in 30% DMSO/30% propylene glycol/40% water. Linezolid was used as positive control and was prepared at 7.5 mg/ml. Vehicle (30% DMSO/30% propylene glycol/40% water) was included as negative control. The dosing formulations were sterilized by passing through 0.2 μm filter prior to injection.
as §2
Statistical Analyses: Data for minimal inhibitory concentrations (MICs) are derived from triplicate measurements. Adaptation data are taken from two replicate experiments for each drug combination condition. Data for qRT-PCR expression profiling are derived from three replicate experiments taken from three biological replicates each, with standard error of measurement calculated. Mice were treated in groups of six, and growth determination of bacteria determined via plate and broth culture in triplicate. Fisher's Exact test with Bonferroni correction was used for 8 independent tests (comparing each treatment to 610 vehicle).

The test system of experiment [4] is MRSA N315. The experiment in a line: Adaptation and cross-resistance assays (11-day passage). The experiment is classed as cell-based, Staphylococcus aureus. The note with it: MRSA N315 after exposure to any other single or double compounds. The protocol:
Adaptation and Cross-resistance Assays: 414 MRSA N315 was grown in 150 μl/well of CAMHB with constant shaking at 37° C. and passaged over 11 days in identical 96-well plates containing replicate threefold dilutions of ME/PI/TZ, ME/PI, ME/TZ, PI/TZ, ME, PI, and TZ. Top concentrations of drug combinations were 33.3 μg/ml for each component, while top concentrations for single drugs was 100 μg/ml. To test for cell viability, at the end of the assay on day 11, all wells from the plate were pinned with a sterile 96-pin replicator and transferred to CAMHB only. After passage, plates were filled 1:1 with 30% CAMHB/glycerol and frozen at −80° C. for later analysis.
Growth rate of isolates over passages in each condition was determined by linear best-fit of logarithm-converted exponential growth phase. […] Adapted isolates were retrospectively chosen from each combination or single compound in wells showing an increase in MIC or growth rate, frozen isolates were streaked out on agar plates to obtain single colonies, re-grown in broth conditions identical to those in which they grew originally, and then re-inoculated in sterile 96-well plates identical to the original 11-day 431 plates.

Method for mecA: Expression profiling with qRT-PCR: Wild-type and adapted MRSA N315 isolates were grown in triplicate in 100 ml flasks to mid-log phase in CAMHB +/−piperacillin at 11.1 μg/ml or tazobactam at 33.3 μg/ml. To harvest cells at mid-log phase, each culture flask was split into 2×50 ml screw-cap tubes, spun down at 4° C. for 10 min at 3500 rpm, supernatant removed, and pellets combined carefully with a 2 ml serological pipette. 1 ml RNAprotect Bacteria Reagent (Qiagen, Valencia, CA, USA) was added to pellets to stabilize the RNA, vortexed briefly, and incubated for 5 min at RT. After incubation, tubes were spun again at 4° C. for 10 min at 3500 rpm, supernatant removed, and the pellets were stored at −80° C. […]
CFX protocol: 2 min@50° C., 2 min@95° C., (15 s@95° C., 1 min@60° C.)×40 cycles. Gene expression was determined using the ΔΔCt method of normalized quantitation 60, where Ct indicates the cycle number at which exponential growth phase increases above threshold fluorescence signal.

The term MIC denotes the lowest concentration that inhibits growth of the organism. For `C[C@]1(Cn2ccnn2)[C@H](C(=O)O)N2C(=O)C[C@H]2S1(=O)=O` [Tazobactam], the MIC with MRSA N315 [1] (Staphylococcus aureus, MRSA) was 100 µg/mL; in the experiment with MRSA N315 [1] (Wild-type N315), 100 µg/mL; in the experiment on MRSA N315 [1] (colonies from mice given PI), 100 µg/mL; with MRSA N315 [1] (colonies from mice given Vehicle), 100 µg/mL; in the experiment with MRSA N315 [2] it was 128 µg/mL. Moreover, the “induction of mecA expression” value with mecA is on record as “strong inducer of mecA”. The “Result (Alive/Dead)” value in the experiment with MRSA N315 [3] (67 mg/kg (of each) every 8 hrs SC, 6 doses, one line per mouse) is “Dead”. For the same compound, the “Result (survivors per group)” value with MRSA N315 [3] (67 mg/kg (of each) every 8 hrs SC, 6 doses, six days post-infection) is reported as 0/6. The “mice that succumbed to the infection” value in the experiment on MRSA N315 [3] (most within 48 h, 67 mg/kg (of each)) is “all mice”. Moreover, the “collateral effect on susceptibility” value in the experiment with MRSA N315 [4] is given as “no collateral sensitivity”.
